From PubChem BioAssay (NCI) come the findings set out here.

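48-hour exposure; five concentrations; linearly interpolated endpoints. The concentration for 50% growth inhibition is given as GI50. TGI: total growth inhibition.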

Among the test systems are SK-MEL-5 melanoma; UACC-257 melanoma; HOP-62 NSCLC; HCT-116 colon; KM12 colon; UO-31 renal; HCC-2998 colon; MOLT-4 leukemia; M14 melanoma.
Common to all, as to assay: NCI tumour cell line growth inhibition, 48 h

As to `COc1cc(C(=O)/C=C/c2sc(Cl)nc2Cl)cc(OC)c1OC`, the GI50 in the experiment on SK-MEL-5 melanoma is 1.95 µM; with UACC-257 melanoma, 2.01 µM; with HOP-62 NSCLC, 2.29 µM; in the experiment with HCT-116 colon, 1.75 µM; with KM12 colon, 1.92 µM; in the experiment with UO-31 renal, 1.44 µM. In addition, the GI50 with HCC-2998 colon was 1.8 µM; in the experiment on MOLT-4 leukemia it was 2.21 µM; in the experiment with M14 melanoma it was 1.85 µM. The TGI with SK-MEL-5 melanoma was 3.96 µM; in the experiment with UACC-257 melanoma, 4.23 µM; in the experiment on HOP-62 NSCLC, 5.6 µM; with HCT-116 colon it was 3.18 µM; in the experiment on KM12 colon it was 3.84 µM; with UO-31 renal, 2.75 µM. For the same compound, the TGI with HCC-2998 colon stood at 3.31 µM; in the experiment on MOLT-4 leukemia, 5.49 µM; with M14 melanoma it was 3.57 µM.
Take `Fc1ccc(Nc2ncnc3ccc(-c4cnc5[nH]ccc5c4)cc23)cc1Cl`: the GI50 in the experiment with SK-MEL-5 melanoma is 6.88 µM; in the experiment on UACC-257 melanoma it was 13.5 µM; in the experiment on HOP-62 NSCLC, 3.54 µM; with HCT-116 colon, 1.77 µM; in the experiment on KM12 colon, 4.71 µM; with UO-31 renal, 0.6 µM. In addition, the GI50 is 4.87 µM with HCC-2998 colon, above 20.8 µM with MOLT-4 leukemia and 4.35 µM in the experiment with M14 melanoma. Also, the TGI in the experiment on SK-MEL-5 melanoma is 40.3 µM; in the experiment with UACC-257 melanoma, above 100 µM; with HOP-62 NSCLC it was 15.6 µM; in the experiment with HCT-116 colon, 3.63 µM; in the experiment with KM12 colon, above 100 µM; with UO-31 renal, 2.38 µM. Besides, the TGI in the experiment on HCC-2998 colon, in the experiment with MOLT-4 leukemia and in the experiment on M14 melanoma was above 100 µM each time.
As to `O=C(Nc1ccc(I)cc1)c1cc([N+](=O)[O-])ccc1O`, the GI50 with SK-MEL-5 melanoma is 3.63 µM; in the experiment on UACC-257 melanoma, 6.89 µM; with HOP-62 NSCLC, 16.4 µM; in the experiment with HCT-116 colon, 6.21 µM; in the experiment with KM12 colon, 5.36 µM; with UO-31 renal, 3.77 µM. The GI50 in the experiment on HCC-2998 colon was 3.82 µM; with MOLT-4 leukemia it was 4.67 µM; with M14 melanoma, 12.8 µM. Also, the TGI with SK-MEL-5 melanoma is 18.6 µM; in the experiment on UACC-257 melanoma, 34.6 µM; in the experiment with HOP-62 NSCLC, above 100 µM; in the experiment on HCT-116 colon it was 31.7 µM; with KM12 colon it was 40.9 µM; in the experiment on UO-31 renal, 47.6 µM. Besides, the values for the TGI in the experiment on HCC-2998 colon, in the experiment with MOLT-4 leukemia and in the experiment with M14 melanoma were 84 µM, 51.3 µM and 62.8 µM, respectively.
With `COc1cc2nc(C)nc(N[C@H](C)c3cc(N)cc(C(F)(F)F)c3)c2cc1O[C@H]1CCOC1`, the GI50 is 13.4 µM in the experiment with SK-MEL-5 melanoma; 16.1 µM in the experiment with UACC-257 melanoma; 11.1 µM with HOP-62 NSCLC; 11.4 µM in the experiment with HCT-116 colon; 14.9 µM in the experiment on KM12 colon; 2.28 µM with UO-31 renal. Further, the GI50 is 17 µM in the experiment with HCC-2998 colon, 12.3 µM with MOLT-4 leukemia and 16.1 µM in the experiment with M14 melanoma. In addition, the TGI with SK-MEL-5 melanoma was found to be 26.5 µM; in the experiment on UACC-257 melanoma, 30.5 µM; in the experiment with HOP-62 NSCLC, 25.6 µM; in the experiment on HCT-116 colon it was 29.6 µM; with KM12 colon it was 30 µM; in the experiment with UO-31 renal, 17.3 µM. Besides, the TGI was determined as 33.2 µM with HCC-2998 colon, 41.5 µM in the experiment on MOLT-4 leukemia and 31.7 µM in the experiment with M14 melanoma.
As for `CN(C)CCCNC1=C(Cl)C(=O)c2ccccc2C1=O`, the GI50 in the experiment on SK-MEL-5 melanoma is 1.6 µM; with UACC-257 melanoma, 1.82 µM; in the experiment on HOP-62 NSCLC, 6.23 µM; with HCT-116 colon, 2.28 µM; with KM12 colon, 5.93 µM; with UO-31 renal, 12.4 µM. In addition, the GI50 with HCC-2998 colon is 1.96 µM; with MOLT-4 leukemia it was 3.02 µM; with M14 melanoma, 1.83 µM. For the same compound, the TGI in the experiment on SK-MEL-5 melanoma worked out at 2.96 µM; in the experiment on UACC-257 melanoma, 3.25 µM; in the experiment on HOP-62 NSCLC it was 17.5 µM; with HCT-116 colon, 6.04 µM; with KM12 colon it was 19.3 µM; in the experiment with UO-31 renal, 27 µM. Further, the results for the TGI in the experiment with HCC-2998 colon, in the experiment on MOLT-4 leukemia and in the experiment on M14 melanoma were 3.45 µM, 8.27 µM and 3.38 µM, respectively.
`CNC(=O)c1ccccc1Nc1nc(Nc2ccc(N3CCOCC3)cc2OC)ncc1Cl`: the GI50 was 1.68 µM in the experiment with SK-MEL-5 melanoma; 0.421 µM with UACC-257 melanoma; 0.341 µM with HOP-62 NSCLC; 0.537 µM in the experiment on HCT-116 colon; 0.298 µM in the experiment with KM12 colon; 0.4 µM in the experiment with UO-31 renal. For the same compound, the GI50 with HCC-2998 colon is 0.636 µM; with MOLT-4 leukemia, 1.85 µM; in the experiment with M14 melanoma, 0.541 µM. The TGI in the experiment on SK-MEL-5 melanoma is above 37.8 µM; with UACC-257 melanoma, above 100 µM; in the experiment on HOP-62 NSCLC, 9.07 µM; in the experiment on HCT-116 colon, above 35.3 µM; in the experiment with KM12 colon, 8.52 µM; with UO-31 renal, 4.44 µM. Also, the figures for the TGI in the experiment with HCC-2998 colon, with MOLT-4 leukemia and in the experiment on M14 melanoma were above 43.2 µM, above 63.7 µM and above 62.8 µM, respectively.
With `C=C(CNCCO)[C@@H]1CC[C@]2(CO)CC[C@]3(C)[C@H](CC[C@@H]4[C@@]5(C)CCC(N)C(C)(C)[C@@H]5CC[C@]43C)[C@@H]12` (stereo partly drawn), the GI50 in the experiment with SK-MEL-5 melanoma is 1.73 µM; in the experiment on UACC-257 melanoma, 1.8 µM; in the experiment on HOP-62 NSCLC it was 2.79 µM; in the experiment with HCT-116 colon it was 1.81 µM; in the experiment on KM12 colon it was 3.4 µM; in the experiment on UO-31 renal it was 13.2 µM. Besides, the results for the GI50 with HCC-2998 colon, with MOLT-4 leukemia and with M14 melanoma were 1.98 µM, 1.99 µM and 2.05 µM, respectively. For the same compound, the TGI in the experiment with SK-MEL-5 melanoma was 3.18 µM; in the experiment with UACC-257 melanoma, 3.23 µM; in the experiment on HOP-62 NSCLC it was 7.36 µM; in the experiment with HCT-116 colon it was 3.84 µM; in the experiment on KM12 colon, 10.1 µM; in the experiment on UO-31 renal, 26.8 µM. For the same compound, the figures for the TGI in the experiment with HCC-2998 colon, in the experiment on MOLT-4 leukemia and in the experiment on M14 melanoma were 3.81 µM, 5.84 µM and 3.97 µM, respectively.
For the compound `C[C@@H](CS(C)(=O)=O)Nc1ncc2cc(Oc3ccc(F)cc3F)c(=O)n(C)c2n1`, the GI50 in the experiment on SK-MEL-5 melanoma, in the experiment with UACC-257 melanoma, in the experiment on HOP-62 NSCLC, in the experiment with HCT-116 colon, in the experiment on KM12 colon and with UO-31 renal was above 25 µM in each case. The GI50 in the experiment on HCC-2998 colon, with MOLT-4 leukemia and in the experiment on M14 melanoma was above 25 µM in each case. In addition, the TGI in the experiment with SK-MEL-5 melanoma, in the experiment with UACC-257 melanoma, with HOP-62 NSCLC, with HCT-116 colon, with KM12 colon and with UO-31 renal was above 25 µM in each case. Moreover, the TGI with HCC-2998 colon, with MOLT-4 leukemia and in the experiment on M14 melanoma was above 25 µM in each case.
`CC[C@@]12CCCN3CC[C@]4(c5cccc(OC)c5N(C(C)=O)[C@@H]4CC1)[C@H]32`: the TGI in the experiment on SK-MEL-5 melanoma, in the experiment on UACC-257 melanoma, in the experiment with HOP-62 NSCLC, in the experiment on HCT-116 colon, in the experiment on KM12 colon and with UO-31 renal was above 100 µM in each case. Also, the TGI was 51.1 µM in the experiment on HCC-2998 colon, 61.3 µM with MOLT-4 leukemia and above 100 µM with M14 melanoma.
